Source: US11938115B2, “Benzoselenophene-based compound, pharmaceutical composition containing same, and antibody-drug conjugate” (priority 2020, dated 2024)
Non-standard residues stand in square brackets, D forms with d. Residues, ends and D or L forms follow the SMILES beside them. *: point of attachment. Dolaproine = CO[C@@H]([C@@H]1CCCN1)[C@@H](C)C(=O)O; Dil = CC[C@H](C)[C@H](NC)[C@@H](CC(=O)O)OC; X1 = C[C@@H](N*)[C@@H](O)c1ccccc1; NMeV = CN[C@H](C(=O)O)C(C)C

Experiments:
[1] = test system: multiple myeloma cell line KMS11; assay: High-throughput screening, cell viability, KMS11; type: cell-based; details: seven days after drug treatment
Procedure: (§1) FIG. 11A, FIG. 11B and FIG. 11C show data confirming the cell viability inhibitory effect of seven types of payloads except Compound 3 (DS-24) on the glioblastoma cell line U87MG, the multiple myeloma cell line KMS11, and the bladder cancer cell line RT112, respectively. Also, FIG. 12A, FIG. 12B, FIG. 12C, FIG. 12D, FIG. 12E and FIG. 12F show data confirming the cell viability inhibitory effect of seven types of payloads except Compound 3 (DS-24) on 6 types of cells derived from a patient with glioblastoma, respectively.
(§2) After treatment with the drug diluted to 14 different concentrations based on 20 μM as the highest concentration, it was verified whether the effect is proportional depending on the drug concentration through the concentration graph for two repeated tests. The cell viability was analyzed seven days after drug treatment to calculate IC50 that inhibits 50% of the cell viability.

[2] = test system: bladder cancer cell line RT112; assay: High-throughput screening, cell viability, RT112; type: cell-based; details: seven days after drug treatment
Procedure: as §1, §2

[3] = test system: glioblastoma cell line U87MG; assay: High-throughput screening, cell viability, U87MG; type: cell-based; details: seven days after drug treatment
Procedure: as §1, §2

[4] = test system: GBM#1 (Glioblastoma, PDC); assay: High-throughput screening, cell viability, GBM#1; type: cell-based; details: seven days after drug treatment
Procedure: as §1, §2

[5] = test system: GBM#2 (Glioblastoma, PDC); assay: High-throughput screening, cell viability, GBM#2; type: cell-based; details: seven days after drug treatment
Procedure: as §1, §2

[6] = test system: GBM#3 (Glioblastoma, PDC); assay: High-throughput screening, cell viability, GBM#3; type: cell-based; details: seven days after drug treatment
Procedure: as §1, §2

[7] = test system: GBM#4 (Glioblastoma, PDC); assay: High-throughput screening, cell viability, GBM#4; type: cell-based; details: seven days after drug treatment
Procedure: as §1, §2

[8] = test system: cell lines and cells derived from a patient with glioblastoma; assay: High-throughput screening, comparison of payloads across cell lines and brain tumor patient-derived cells; type: cell-based; details: for cell viability inhibitory effect compared with the other payloads: all cells; for cell viability inhibitory effect on cells derived from a patient with glioblastoma compared to KMS11 and RT112: comparison between cells
Procedure: as §1, §2

[9] = test system: Her2-positive human gastric cancer cells NCI-N87; assay: Cell growth inhibition assay (ATPlite), NCI-N87; type: cell-based; design: unit not given beside the values; details: 3 days of incubation
Procedure: (§3) Her2-positive human gastric cancer cells NCI-N87 and human ovarian cancer cells SK-OV3 purchased from the American Type Culture Collection (ATCC; Manassas, VA, USA) were seeded into a 384-well plate at 500 cells per well. After plating for 2 hours, the cells were treated in quadruplicate with toxins in 5-fold and 14-point serial dilution series. After 3 days of incubation at 37° C. in a 5% CO2 humidified incubator, cell viability was checked using an adenosine triphosphate monitoring system based on firefly luciferase (ATPlite™ 1step, PerkinElmer, MA, USA). IC50 values were calculated as an average of four quadruplicated tests (GraphPad Prism 5.0, CA, and USA). FIG. 13A and FIG. 13B are graphs showing the cell viability of NCI-N87 depending on the concentrations of DS-24 and DS-26, respectively, and FIG. 14A and FIG. 14B are graphs showing the cell viability of SK-OV3 depending on the concentrations of DS-24 and DS-26, respectively.

[10] = test system: human ovarian cancer cells SK-OV3; assay: Cell growth inhibition assay (ATPlite), SK-OV3; type: cell-based; design: unit not given beside the values; details: 3 days of incubation
Procedure: as §3

NCI cell lines = assay: In vitro cell line activity, NCI NTP program; type: cell-based
Procedure: The activity of Compound 3 was checked by requesting a sample to the NCI NTP program.
Based on the results shown in FIG. 6, it was analyzed whether there was any statistical significance in the reactivity depending on cancer types in the cell lines for which the anticancer effect was confirmed by the NCI NTP program.

[11] = test system: B16F10 (Murine melanoma Cell line); assay: In vivo activity, B16F10 tumor volume; design: species or system mouse; details: 5 ug/kg, 50 ug/kg, 100 ug/kg, IV, twice a week
[12] = Hydrophobic interaction chromatography (HIC) analysis; type: physicochemical; details: inferred from HIC, DAR species appear as one

Structure (SMILES)	IC50 [1] [nM]	IC50 [2] [nM]	IC50 [3] [nM]	IC50 [4] [nM]	IC50 [5] [nM]	IC50 [7] [nM]	cell viability inhibitory effect on cells derived from a patient with glioblastoma compared to KMS11 and RT112 [8]	also measured
COc1ccc2c(O)cc3c(c2c1)[C@H](CCl)CN3C(=O)c1cc2cc(NC(=O)CCN3CCOCC3)ccc2[se]1 [Compound 3, (S)—N-(2-(1-(chloromethyl)-5-hydroxy-8-methoxy-2,3-dihydro-1H-benzo[e]indole-3-carbonyl)benzo[b]selenophen-5-yl)-3-morpholinopropanamide]								IC50 ([1]; Homo sapiens, KMS-11, 168 h): 0.0122 nM; IC50 ([2]; Homo sapiens, RT-112, 168 h): 0.00837 nM; IC50 ([3]; Homo sapiens, U-87 MG, 168 h): 0.0339 nM; IC50 ([4]; GBM1, 168 h): 0.98 nM; IC50 ([5]; GBM2, 168 h): 0.0264 nM; IC50 ([6]; GBM3, 168 h): 0.0313 nM; IC50 ([7]; 168 h): 0.215 nM; cell viability inhibitory effect compared with the other payloads [8]: highest cell viability inhibitory effect among the compared materials; AUC (area under the curve), NCI-N87 [9]: 277; AUC (area under the curve), SK-OV3 [10]: 160; TGI, sensitivity difference between cancer types (NCI cell lines; non-small cell lung cancer, CNS cancer and melanoma compared to leukemia): tumor growth inhibition effect; activity by cancer type (NCI cell lines; non-small lung cancer, CNS cancer, melanoma, renal cancer): remarkably strong activity; GI50 (Growth Inhibition 50%) (NCI cell lines; several cell lines): pM or less; in vivo activity (tumor volume) [11]: in vivo activity even at a very low concentration
COc1ccc2c(OC(=O)N(CCN(C)C(=O)OCc3ccc(O[C@@H]4O[C@@H](C(=O)O)[C@H](OC(C)=O)[C@@H](OC(C)=O)[C@@H]4OC(C)=O)cc3)Cc3cn(CCOCCOCCOCCNC(=O)CCN4C(=O)C=CC4=O)nn3)cc3c(c2c1)[C@H](CCl)CN3C(=O)c1cc2cc(NC(=O)CCN3CCOCC3)ccc2[se]1 [Compound 3-3, (2R,3R,4R,5S,6S)-3,4,5-triacetoxy-6-(4-((((2-(((((S)-1-(chloromethyl)-8-methoxy-3-(5-(3-morpholinopropanamido)benzo[b]selenophene-2-carbonyl)-2,3-dihydro-1H-benzo[e]indol-5-yl)oxy)carbonyl)((1-(15-(2,5-dioxo-2,5-dihydro-1H-pyrrol-1-yl)-13-oxo-3,6,9-trioxa-12-azapentadecyl)-1H-1,2,3-triazol-4-yl)methyl)amino)ethyl)(methyl)carbamoyl)oxy)methyl)phenoxy)tetrahydro-2H-pyran-2-carboxylic Acid]								polarity and water solubility [12]: very high polarity and a good water solubility
COc1cc2cc(c1Cl)N(C)C(=O)C[C@H](OC(=O)[C@H](C)N(C)C(=O)CCS)[C@]1(C)O[C@H]1[C@H](C)[C@@H]1C[C@@](O)(NC(=O)O1)[C@H](OC)/C=C/C=C(\C)C2 [DM1]	0.0441	0.0431	13.3	133	95.9	92.1	remarkable decrease in the cell viability inhibitory effect	
COc1cc2cc(c1Cl)N(C)C(=O)C[C@H](OC(=O)[C@H](C)N(C)C(=O)CCC(C)(C)S)[C@]1(C)O[C@H]1[C@H](C)[C@@H]1C[C@@](O)(NC(=O)O1)[C@H](OC)/C=C/C=C(\C)C2 [DM4]	0.0229	0.0202	1.51	29.8	53.1	8.15	remarkable decrease in the cell viability inhibitory effect	
CC[C@H](C)[C@@H]([C@@H](CC(=O)N1CCC[C@H]1[C@H](OC)[C@@H](C)C(=O)N[C@H](C)[C@@H](O)c1ccccc1)OC)N(C)C(=O)[C@@H](NC(=O)[C@@H](NC)C(C)C)C(C)C [MMAE] (H-[NMeV]V[Dil][Dolaproine]-X1)	0.153	0.259	3.39	51.6	15	53.3	remarkable decrease in the cell viability inhibitory effect	
CC[C@H](C)[C@@H]([C@@H](CC(=O)N1CCC[C@H]1[C@H](OC)[C@@H](C)C(=O)N[C@@H](Cc1ccccc1)C(=O)O)OC)N(C)C(=O)[C@@H](NC(=O)[C@@H](NC)C(C)C)C(C)C [MMAF] (HELM PEPTIDE1{[meV].V.[CC[C@H](C)[C@@H]([C@@H](CC(=O)[*:2])OC)N(C)[*:1]].[CO[C@H]([C@@H](C)C(=O)[*:2])[C@@H]1CCCN1[*:1]].F}$$$$V2.0)	91.4	112	353	16900	1360	8860	remarkable decrease in the cell viability inhibitory effect	IC50 [6]: 31100 nM
CCc1c2c(nc3ccc(O)cc13)-c1cc3c(c(=O)n1C2)COC(=O)[C@]3(O)CC [SN-38]	169	15.6	67.8	128	97	146		IC50 [6]: 131 nM; cell viability inhibitory effect compared with the other payloads [8]: lower cell viability inhibitory effect than the other payloads
